Experiments:
Test in all cases: relative viability (nuclei count vs DMSO), 5 days (fraction); higher = more cells survive
EHT 1864 + Luminespib = compound: C1COCCN1CC2=CC(=O)C(=CO2)OCCCCCSC3=C4C=CC(=CC4=NC=C3)C(F)(F)F [EHT 1864] + CCNC(=O)c1noc(-c2cc(C(C)C)c(O)cc2O)c1-c1ccc(CN2CCOCC2)cc1 [Luminespib] (partner 0.01 µM)
Outline: (§1)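 Relative viability equals treated-well nuclei counts divided by vehicle-well nuclei counts. Counts came from 4× images of lung cancer cell lines grown in 1536-well plates for 5 days after pin-tool dosing on the day after seeding. Dosing used one drug alone or a fixed anchor-drug dose plus five library-drug doses (not always all listed) in √10 steps, and values are medians of duplicate plates.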

EHT 1864 + Bortezomib = compound: C1COCCN1CC2=CC(=O)C(=CO2)OCCCCCSC3=C4C=CC(=CC4=NC=C3)C(F)(F)F [EHT 1864] + CC(C)C[C@H](NC(=O)[C@H](Cc1ccccc1)NC(=O)c1cnccn1)B(O)O [Bortezomib] (partner 0.002 µM)
Outline: as §1

EHT 1864 + Dasatinib = compound: C1COCCN1CC2=CC(=O)C(=CO2)OCCCCCSC3=C4C=CC(=CC4=NC=C3)C(F)(F)F [EHT 1864] + Cc1nc(Nc2ncc(C(=O)Nc3c(C)cccc3Cl)s2)cc(N2CCN(CCO)CC2)n1 [Dasatinib] (partner 0.075 µM)
Outline: as §1

EHT 1864 + Palbociclib = compound: C1COCCN1CC2=CC(=O)C(=CO2)OCCCCCSC3=C4C=CC(=CC4=NC=C3)C(F)(F)F [EHT 1864] + CC(=O)c1c(C)c2cnc(Nc3ccc(N4CCNCC4)cn3)nc2n(C2CCCC2)c1=O [Palbociclib] (partner 0.5 µM)
Outline: as §1

Cell Line	relative viability (EHT 1864 + Luminespib; first compound 0.04 µM)	relative viability (EHT 1864 + Luminespib; first compound 0.4 µM)	relative viability (EHT 1864 + Luminespib; first compound 1.265 µM)	relative viability (EHT 1864 + Luminespib; first compound 4 µM)	relative viability (EHT 1864 + Bortezomib; first compound 0.04 µM)	relative viability (EHT 1864 + Bortezomib; first compound 0.1265 µM)	relative viability (EHT 1864 + Bortezomib; first compound 0.4 µM)	relative viability (EHT 1864 + Bortezomib; first compound 1.265 µM)	relative viability (EHT 1864 + Bortezomib; first compound 4 µM)	relative viability (EHT 1864 + Dasatinib; first compound 0.04 µM)	relative viability (EHT 1864 + Dasatinib; first compound 0.4 µM)	relative viability (EHT 1864 + Dasatinib; first compound 1.265 µM)	relative viability (EHT 1864 + Dasatinib; first compound 4 µM)	relative viability (EHT 1864 + Palbociclib; first compound 0.04 µM)	relative viability (EHT 1864 + Palbociclib; first compound 0.4 µM)	relative viability (EHT 1864 + Palbociclib; first compound 1.265 µM)	relative viability (EHT 1864 + Palbociclib; first compound 4 µM)	relative viability (EHT 1864 + Luminespib; first compound 0.1265 µM)	relative viability (EHT 1864 + Dasatinib; first compound 0.1265 µM)	relative viability (EHT 1864 + Palbociclib; first compound 0.1265 µM)
NCI-H1993	0.737	0.813	0.865	0.795	0.973	0.733	1.06	1.01	1.06	0.841	0.498	0.613	0.639	0.693	0.682	0.664	0.741			
NCI-H1437	1.1	1.03	0.912	0.681	0.563	0.476	0.475	0.486	0.473	0.453	0.342	0.235	0.248	0.311	0.309	0.236	0.302	1.04	0.387	0.293
UMC-11	1.03		1.02	1.12	0.675	0.521	0.719	0.255	0.547	0.462		0.441	0.458	0.339	0.281	0.343	0.31	0.925	0.449	0.266
201T	0.994	1.01	0.891	0.946	1.14	1.04	1.05	1.09	1.09	0.563	0.589	0.473	0.528	0.345	0.353	0.307	0.356	1.06	0.587	0.36
ChaGo-K-1	0.487	0.703	0.547	0.559	0.939	1.05	0.997		0.965	0.587	0.619	0.602	0.616	0.946	0.951	0.852	0.911	0.604	0.551	0.904
NCI-H1650		0.203	0.201	0.198	0.202	0.205	0.228	0.215	0.202		0.36	0.271	0.377	0.375	0.273	0.378	0.277			0.31
LOU-NH91	0.345	0.342	0.294	0.32	0.566	0.514	0.492	0.498	0.498	0.543	0.56	0.628	0.486	0.512	0.53	0.495	0.589	0.345	0.5	0.524
HOP-62	0.932	0.765	0.798	0.982	1.18		0.618	1.08	0.986	0.561	0.74	0.589	0.84	0.453	0.516	0.438	0.425			
NCI-H1915	0.8	0.733	0.577	0.791	1		1.01	0.934	0.964	0.309	0.296	0.338	0.282	0.554	0.53	0.503	0.516			

From the supplement of paper PMC10307832
